A word on the AC50: it is the concentration giving half of the maximal activity seen.

For one assay, the target named is T1, human PAH with the R408W mutation (Homo sapiens, UniProt P00439, R408W).
T1 construct: expressed in transfected cells
T1 sequence (P00439 1-452 R408W): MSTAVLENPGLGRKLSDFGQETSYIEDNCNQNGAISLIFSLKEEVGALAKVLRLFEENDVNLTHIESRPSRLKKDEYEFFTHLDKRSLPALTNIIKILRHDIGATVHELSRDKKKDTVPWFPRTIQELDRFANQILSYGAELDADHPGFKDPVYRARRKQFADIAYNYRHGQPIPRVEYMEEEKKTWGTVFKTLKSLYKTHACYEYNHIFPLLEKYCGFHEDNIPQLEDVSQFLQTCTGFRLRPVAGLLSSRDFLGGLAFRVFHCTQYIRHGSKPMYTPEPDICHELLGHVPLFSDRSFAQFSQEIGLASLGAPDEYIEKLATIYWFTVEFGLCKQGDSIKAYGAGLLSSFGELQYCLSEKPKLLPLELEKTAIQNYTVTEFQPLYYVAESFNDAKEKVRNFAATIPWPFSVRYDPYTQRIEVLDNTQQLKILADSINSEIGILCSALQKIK
The assay can be described thus: Cell Based Phenylalanine Flux Assay. The settings on record: A375 cells expressing human R408W PAH; 24 hrs compound incubation; 13C-Tyrosine by LC-MS; average where tested multiple times; read-out: AC50.
As for `O=C(c1cnn2c(Br)cccc12)N1CCc2[nH]cnc2[C@@H]1c1nc2ccc(F)cc2s1` [Example 1150, (R)-(7-bromopyrazolo[1,5-a]pyridin-3-yl)(4-(6-fluorobenzo[d]thiazol-2-yl)-6,7-dihydro-1H-imidazo[4,5-c]pyridin-5(4H)-yl)methanone], the AC50 is above 5000 nM. For the molecule `O=C(c1nnc(-c2ccccn2)o1)N1CCc2[nH]cnc2[C@@H]1c1nc2ccccc2s1` [Example 1440, (R)-(4-(benzo[d]thiazol-2-yl)-6,7-dihydro-1H-imidazo[4,5-c]pyridin-5(4H)-yl)(5-(pyridin-2-yl)-1,3,4-oxadiazol-2-yl)methanone], the AC50 lay within 1000 to 5000 nM. As for `Cc1cccc2sc([C@@H]3c4nc[nH]c4CCN3C(=O)c3cnco3)nc12` [Example 2013, (S)-(4-(4-methylbenzo[d]thiazol-2-yl)-6,7-dihydro-1H-imidazo[4,5-c]pyridin-5(4H)-yl)(oxazol-5-yl)methanone], the AC50 was 500 to 1000 nM. As to `O=C(c1cn(CC2CC2)nc1Cl)N1CCc2[nH]cnc2[C@H]1c1nc2c(F)cccc2s1` [Example 1983, (S)-(3-chloro-1-(cyclopropylmethyl)-1H-pyrazol-4-yl)(4-(4-fluorobenzo[d]thiazol-2-yl)-6,7-dihydro-1H-imidazo[4,5-c]pyridin-5(4H)-yl)methanone], the AC50 was below 500 nM. For `CC(C)(O)c1nc(C(F)(F)F)c(C(=O)N2CCc3[nH]cnc3[C@H]2c2nc3c(F)cccc3s2)o1` [Example 1541, (S)-(4-(4-fluorobenzo[d]thiazol-2-yl)-6,7-dihydro-1H-imidazo[4,5-c]pyridin-5(4H)-yl)(2-(2-hydroxypropan-2-yl)-4-(trifluoromethyl)oxazol-5-yl)methanone], the AC50 was below 500 nM. Take `O=C(c1cnc(NC2CC2)s1)N1CCc2[nH]cnc2[C@H]1c1nc2ccccc2s1` [Example 1183]: the AC50 was below 500 nM. As to `O=C(c1oc(-c2ccccn2)nc1C1CC1)N1CCc2[nH]cnc2[C@@H]1c1nc2c(F)cccc2s1` [Example 1536, (R)-(4-cyclopropyl-2-(pyridin-2-yl)oxazol-5-yl)(4-(4-fluorobenzo[d]thiazol-2-yl)-6,7-dihydro-1H-imidazo[4,5-c]pyridin-5(4H)-yl)methanone], the AC50 is 1000 to 5000 nM.

Regarding `CC(C)(O)c1c(Br)ccc2c(C(=O)N3CCc4[nH]cnc4[C@@H]3c3nc4ccccc4s3)cnn12` [Example 1476, (R)-(4-(benzo[d]thiazol-2-yl)-6,7-dihydro-1H-imidazo[4,5-c]pyridin-5(4H)-yl)(6-bromo-7-(2-hydroxypropan-2-yl)pyrazolo[1,5-a]pyridin-3-yl)methanone], the AC50 was 1000 to 5000 nM. On to `CC(O)c1nc(Br)c(C(=O)N2CCc3[nH]cnc3[C@H]2c2nc3c(F)cccc3s2)o1` (single isomer, unassigned) [Example 2057], for which the AC50 is below 500 nM. Regarding `O=C(c1cnn2ccc(F)cc12)N1CCc2[nH]cnc2[C@@H]1c1nc2c(F)cccc2s1` [Example 1169, (R)-(4-(4-fluorobenzo[d]thiazol-2-yl)-6,7-dihydro-1H-imidazo[4,5-c]pyridin-5(4H)-yl)(5-fluoropyrazolo[1,5-a]pyridin-3-yl)methanone], the AC50 is 1000 to 5000 nM. As for `Cc1cccc2nc([C@H]3c4nc[nH]c4CCN3C(=O)c3cnco3)sc12` [Example 2180, (R)-(4-(7-methylbenzo[d]thiazol-2-yl)-6,7-dihydro-1H-imidazo[4,5-c]pyridin-5(4H)-yl)(oxazol-5-yl)methanone], the AC50 is above 5000 nM. For `O=C(CCc1nccs1)N1CCc2[nH]cnc2[C@@H]1c1nc2cccc(Br)c2s1` [Example 1122, (R)-1-(4-(7-bromobenzo[d]thiazol-2-yl)-6,7-dihydro-1H-imidazo[4,5-c]pyridin-5(4H)-yl)-3-(thiazol-2-yl)propan-1-one], the AC50 fell in the range of 1000 to 5000 nM.

For `CC(F)c1nc(C(F)F)c(C(=O)N2CCc3[nH]cnc3[C@H]2c2nc3c(F)cccc3s2)o1` (single isomer, unassigned) [Example 2075], the AC50 is below 500 nM. Take `Cc1c(C(=O)N2CCc3[nH]cnc3[C@@H]2c2nc3c(F)cccc3s2)cnn1-c1ccccn1` [Example 1934, (R)-(4-(4-fluorobenzo[d]thiazol-2-yl)-6,7-dihydro-1H-imidazo[4,5-c]pyridin-5(4H)-yl)(5-methyl-1-(pyridin-2-yl)-1H-pyrazol-4-yl)methanone]: the AC50 was above 5000 nM. On to `O=C(c1cnn2cc(CN3CCC(F)(F)C3)ccc12)N1CCc2[nH]cnc2[C@@H]1c1nc2ccccc2s1` [Example 1314, (R)-(4-(benzo[d]thiazol-2-yl)-6,7-dihydro-1H-imidazo[4,5-c]pyridin-5(4H)-yl)(6-((3,3-difluoropyrrolidin-1-yl)methyl)pyrazolo[1,5-a]pyridin-3-yl)methanone], for which the AC50 is above 5000 nM. Turning to `Cc1ncoc1C(=O)N1C[C@@H](C)c2[nH]cnc2[C@@H]1c1nc2ccccc2s1` [Example 1548, ((4R,7R)-4-(benzo[d]thiazol-2-yl)-7-methyl-6,7-dihydro-1H-imidazo[4,5-c]pyridin-5(4H)-yl)(4-methyloxazol-5-yl)methanone], the AC50 is above 5000 nM. The same measure, in the same setting: the same measure for `O=C(c1cnn2ccccc12)N1CCc2[nH]cnc2[C@H]1c1nc2c(Br)cccc2s1` [Example 1241, (S)-(4-(4-bromobenzo[d]thiazol-2-yl)-6,7-dihydro-1H-imidazo[4,5-c]pyridine-5(4H)-yl)(pyrazolo [1,5-a]pyridin-3-yl)methanone]: 500 to 1000 nM; for `O=C(c1cnc(-c2ccccn2)o1)N1CC2(CC2)c2[nH]cnc2[C@H]1c1nc2ccccc2s1` [Example 1653, (S)-(4′-(benzo[d]thiazol-2-yl)spiro[cyclopropane-1,7′-imidazo[4,5-c]pyridin]-5′(1′H,4′H,6′H)-yl)(2-(pyridin-2-yl)oxazol-5-yl)methanone]: 500 to 1000 nM.

As to `[2H]c1nc2c([nH]1)CCN(C(=O)c1cnco1)[C@@H]2c1nc2c(F)cccc2s1` [Example 2161, [(4S)-2-deuterio-4-(4-fluoro-1,3-benzothiazol-2-yl)-1,4,6,7-tetrahydroimidazo[4,5-c]pyridin-5-yl]-oxazol-5-yl-methanone], the AC50 lay in the range of 500 to 1000 nM. Take `O=C(CCC1CC1)N1CCc2nc[nH]c2[C@H]1c1nc2c(F)cccc2s1` [Example 1113, (S)-3-cyclopropyl-1-(4-(4-fluorobenzo[d]thiazol-2-yl)-6,7-dihydro-3H-imidazo[4,5-c]pyridin-5(4H)-yl)propan-1-one]: the AC50 was in the range of 1000 to 5000 nM.

Regarding `O=C(c1ocnc1C(F)F)N1CCc2[nH]cnc2[C@H]1c1nc2c(F)cccc2s1` [Example 1615], the concentration at half-maximal activity (AC50) is below 500 nM.

Regarding `O=C(c1oc(C2CC2)nc1C(F)(F)F)N1CCc2[nH]cnc2[C@@H]1c1nc2ccccc2s1` [Example 2164, (R)-(4-(benzo[d]thiazol-2-yl)-6,7-dihydro-1H-imidazo[4,5-c]pyridin-5(4H)-yl)(2-cyclopropyl-4-(trifluoromethyl)oxazol-5-yl)methanone], the AC50 is below 500 nM.

Consider `Cc1ccc2nc([C@H]3c4nc[nH]c4CCN3C(=O)c3cncs3)sc2c1` [Example 1304, (R)-(4-(6-methylbenzo[d]thiazol-2-yl)-6,7-dihydro-1H-imidazo[4,5-c]pyridin-5(4H)-yl)(thiazol-5-yl)methanone], for which the AC50 is above 5000 nM.

The assay is the same for the next values; noted with them: A375 cells expressing human R408W PAH; 24 hrs with compound; 13C-Tyrosine by LC-MS; average where tested multiple times; read-out: AC50.
In the case of `O=C(Cc1ccccn1)N1CCc2[nH]cnc2[C@H]1c1nc2ccccc2[nH]1` [(S)-1-(4-(1H-benzo[d]imidazol-2-yl)-6,7-dihydro-1H-imidazo[4,5-c]pyridin-5(4H)-yl)-2-(pyridin-2-yl)ethanone], the AC50 lay in the range of 1000 to 5000 nM. On the same count and under the same terms, the same measure for `O=C(c1ccns1)N1CCc2[nH]cnc2[C@H]1c1nc2ccccc2[nH]1` [(S)-(4-(1H-benzo[d]imidazol-2-yl)-1,4,6,7-tetrahydro-5H-imidazo[4,5-c]pyridin-5-yl)(isothiazol-5-yl)methanone]: 1000 to 5000 nM; for `O=C(c1cnco1)N1CCc2[nH]cnc2C1c1nc2ccc(F)cc2s1` (stereo not shown): above 5000 nM; for `O=C(c1nccs1)N1CCc2[nH]cnc2[C@H]1c1nc2ccc(F)cc2[nH]1` (single isomer, unassigned): 1000 to 5000 nM. Consider `Cc1nnc(CCC(=O)N2CCc3[nH]cnc3C2c2nc3ccccc3s2)o1` (stereo not shown), for which the AC50 was above 5000 nM.

Take `Cc1nnc(CCC(=O)N2CCc3[nH]cnc3C2c2nc3c(F)cccc3s2)s1` (stereo not shown): the AC50 was 1000 to 5000 nM. As for `Cc1nnc(N2CCc3[nH]cnc3C2c2nc3ccccc3s2)o1` (stereo not shown), the AC50 is above 5000 nM. Still for that read-out and setting: the same measure for `Cn1cc(-c2cccc(C(=O)N3CCc4[nH]cnc4[C@H]3c3nc4ccccc4s3)c2)cn1` (single isomer, unassigned): 1000 to 5000 nM; for `Cc1nnc(C(=O)N2CCc3[nH]cnc3C2c2nc3c(F)cccc3s2)n1C` (stereo not shown): 1000 to 5000 nM; for `O=C(c1cnn2c(Br)cccc12)N1CCc2[nH]cnc2C1c1nc2ccccc2[nH]1` (stereo not shown): 1000 to 5000 nM. On to `Cc1nnc(CC(=O)N2CCc3[nH]cnc3[C@H]2c2nc3ccccc3[nH]2)s1` [(S)-1-(4-(1H-benzo[d]imidazol-2-yl)-1,4,6,7-tetrahydro-5H-imidazo[4,5-c]pyridin-5-yl)-2-(5-methyl-1,3,4-thiadiazol-2-yl)ethan-1-one], for which the AC50 is above 5000 nM. `O=C(Cc1nc(C(F)(F)F)cs1)N1CCc2[nH]cnc2C1c1nc2c(F)cccc2s1` (stereo not shown): the AC50 is 1000 to 5000 nM. With `CC1CN(C(=O)c2nnc(C(C)(C)O)o2)C(c2nc3ccccc3s2)c2nc[nH]c21` (stereo not shown), the AC50 fell in the range of 1000 to 5000 nM. Regarding `CN(C)Cc1nc(C(=O)N2CCc3[nH]cnc3C2c2nc3ccccc3s2)no1` (stereo not shown), the AC50 was in the range of 1000 to 5000 nM.

(Values after US20250171438A1 (Agios Pharmaceuticals, Inc., priority 2022, published 2025).)
